Experimental data published in ChEMBL document CHEMBL2424622, “Development of amino-pyrimidine inhibitors of c-Jun N-terminal kinase (JNK): kinase profiling guided optimization of a 1,2,3-benzotriazole lead” (Bioorg Med Chem Lett, 2013).

Experiments:
[1] = target: T1, Mitogen-activated protein kinase kinase kinase kinase 3 (Homo sapiens) (UniProt Q8IVH8); experiment: Competitive binding affinity to MAP4K3 (unknown origin) at 10 uM in presence of ATP relative to control
T1 sequence (whole entry): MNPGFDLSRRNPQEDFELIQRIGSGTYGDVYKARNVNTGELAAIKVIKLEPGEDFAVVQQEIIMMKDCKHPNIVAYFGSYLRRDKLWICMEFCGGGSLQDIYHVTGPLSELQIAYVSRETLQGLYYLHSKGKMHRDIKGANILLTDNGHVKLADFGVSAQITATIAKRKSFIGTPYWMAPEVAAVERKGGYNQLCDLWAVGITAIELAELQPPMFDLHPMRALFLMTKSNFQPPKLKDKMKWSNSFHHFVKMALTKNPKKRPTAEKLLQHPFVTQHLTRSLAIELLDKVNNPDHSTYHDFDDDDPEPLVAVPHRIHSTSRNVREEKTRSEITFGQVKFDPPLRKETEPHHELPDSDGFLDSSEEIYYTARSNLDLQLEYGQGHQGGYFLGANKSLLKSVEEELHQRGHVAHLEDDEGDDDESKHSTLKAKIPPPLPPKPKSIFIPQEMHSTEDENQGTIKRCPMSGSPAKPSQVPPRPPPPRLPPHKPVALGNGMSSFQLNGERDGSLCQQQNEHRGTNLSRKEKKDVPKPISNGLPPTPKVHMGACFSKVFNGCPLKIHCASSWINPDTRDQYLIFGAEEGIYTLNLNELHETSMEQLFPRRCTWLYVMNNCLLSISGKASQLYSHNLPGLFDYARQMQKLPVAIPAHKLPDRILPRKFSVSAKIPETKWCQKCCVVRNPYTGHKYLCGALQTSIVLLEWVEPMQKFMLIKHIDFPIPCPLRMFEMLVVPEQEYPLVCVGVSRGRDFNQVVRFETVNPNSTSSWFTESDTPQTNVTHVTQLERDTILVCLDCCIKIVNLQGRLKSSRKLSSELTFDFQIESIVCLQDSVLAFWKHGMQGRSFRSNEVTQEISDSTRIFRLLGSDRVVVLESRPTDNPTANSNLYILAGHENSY

[2] = target: T2, NUAK family SNF1-like kinase 1 (Homo sapiens) (UniProt O60285); experiment: Competitive binding affinity to ARK5 (unknown origin) at 10 uM in presence of ATP relative to control
T2 sequence (whole entry): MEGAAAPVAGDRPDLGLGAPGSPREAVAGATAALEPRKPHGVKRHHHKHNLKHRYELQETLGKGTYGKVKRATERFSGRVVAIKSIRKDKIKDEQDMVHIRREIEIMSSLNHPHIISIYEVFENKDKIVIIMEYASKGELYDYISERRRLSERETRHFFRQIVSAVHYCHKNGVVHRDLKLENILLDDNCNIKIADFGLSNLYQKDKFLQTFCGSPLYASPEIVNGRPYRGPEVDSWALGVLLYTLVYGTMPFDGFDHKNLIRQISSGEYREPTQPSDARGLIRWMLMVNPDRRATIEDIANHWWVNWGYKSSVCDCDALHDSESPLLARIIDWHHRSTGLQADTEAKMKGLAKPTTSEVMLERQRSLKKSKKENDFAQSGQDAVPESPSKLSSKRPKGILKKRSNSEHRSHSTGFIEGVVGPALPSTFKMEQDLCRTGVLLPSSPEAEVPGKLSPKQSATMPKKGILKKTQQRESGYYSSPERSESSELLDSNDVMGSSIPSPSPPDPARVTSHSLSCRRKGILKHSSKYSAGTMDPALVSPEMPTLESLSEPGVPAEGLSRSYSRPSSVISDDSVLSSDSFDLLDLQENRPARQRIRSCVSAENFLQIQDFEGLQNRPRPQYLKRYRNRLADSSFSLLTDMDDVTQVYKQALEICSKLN

[3] = target: T3, Serine/threonine-protein kinase Nek1 (Homo sapiens) (UniProt Q96PY6); experiment: Competitive binding affinity to NEK1 (unknown origin) at 10 uM in presence of ATP relative to control
T3 sequence (whole entry): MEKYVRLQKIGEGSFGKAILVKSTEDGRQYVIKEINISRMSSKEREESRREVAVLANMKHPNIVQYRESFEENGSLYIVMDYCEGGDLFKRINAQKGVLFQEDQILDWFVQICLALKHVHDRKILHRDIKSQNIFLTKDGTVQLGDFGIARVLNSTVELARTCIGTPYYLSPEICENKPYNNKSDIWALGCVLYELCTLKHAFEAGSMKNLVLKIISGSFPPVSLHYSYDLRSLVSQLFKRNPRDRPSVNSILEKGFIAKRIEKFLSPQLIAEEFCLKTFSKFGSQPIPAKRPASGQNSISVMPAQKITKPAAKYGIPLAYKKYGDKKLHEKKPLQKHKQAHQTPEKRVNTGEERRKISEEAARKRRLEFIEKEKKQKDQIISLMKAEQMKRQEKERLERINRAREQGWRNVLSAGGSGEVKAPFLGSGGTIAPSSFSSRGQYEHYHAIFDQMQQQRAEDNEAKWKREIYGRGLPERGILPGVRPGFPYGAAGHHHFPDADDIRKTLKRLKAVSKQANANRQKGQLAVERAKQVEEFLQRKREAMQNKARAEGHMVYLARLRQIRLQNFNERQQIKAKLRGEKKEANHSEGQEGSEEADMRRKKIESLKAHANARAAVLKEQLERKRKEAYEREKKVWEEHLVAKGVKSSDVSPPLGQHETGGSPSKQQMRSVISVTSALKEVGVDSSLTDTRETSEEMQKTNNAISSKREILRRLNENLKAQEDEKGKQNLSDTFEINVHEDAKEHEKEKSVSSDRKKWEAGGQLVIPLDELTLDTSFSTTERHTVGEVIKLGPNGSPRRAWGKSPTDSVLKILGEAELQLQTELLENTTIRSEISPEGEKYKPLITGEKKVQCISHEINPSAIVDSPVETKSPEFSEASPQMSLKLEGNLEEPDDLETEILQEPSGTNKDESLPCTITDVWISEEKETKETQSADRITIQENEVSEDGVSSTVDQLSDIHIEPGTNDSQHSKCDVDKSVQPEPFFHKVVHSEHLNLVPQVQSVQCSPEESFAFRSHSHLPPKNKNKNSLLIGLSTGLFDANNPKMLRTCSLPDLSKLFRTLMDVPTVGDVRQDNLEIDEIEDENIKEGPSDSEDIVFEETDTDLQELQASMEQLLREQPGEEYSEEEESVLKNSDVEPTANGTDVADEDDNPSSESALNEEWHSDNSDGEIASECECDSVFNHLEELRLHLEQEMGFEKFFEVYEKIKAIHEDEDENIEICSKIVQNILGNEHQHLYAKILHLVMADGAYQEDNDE

SMILES | inhibition [1] [%] | inhibition [2] [%] | inhibition [3] [%]
O[C@H]1CC[C@H](Nc2nccc(-c3n[nH]c4ccccc34)n2)CC1 | 97 | – | –
O[C@H]1CC[C@H](Nc2nccc(-n3ccc4ccccc43)n2)CC1 | < 50 | < 50 | 84
CS(=O)(=O)CCCOc1cccc2c1ccn2-c1ccnc(N[C@H]2CC[C@H](C(=O)N3CCC(O)CC3)CC2)n1 | – | – | > 85

Now from value to molecule:

inhibition [1] [%] | inhibition [2] [%] | inhibition [3] [%] | SMILES
< 50 | 72 | 98 | O[C@H]1CC[C@H](Nc2nccc(-n3nnc4ccccc43)n2)CC1
< 50 | 74 | 96 | O[C@H]1CC[C@H](Nc2nccc(-n3ncc4ccccc43)n2)CC1
